Each structure is given as a SMILES string.

Here are results for 27 compounds from US20160158200A1, “Combinations of Hepatitis C Virus Inhibitors” (priority 2013, published 2016).

For this test, the system named is HCV genotype-1a variant with glutamine 30 changed to glutamate in the NS5A protein. It counts as cell-based. Particulars: test compound titrated with BMS-790052 fixed at 200 nM; genotype 1a Q30E replicon. Summed up: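 Synergy was assessed by combining several fixed amounts of an NS5A-targeting compound with a titration of the second compound of interest.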

On to `CC(C)(C)[C@H](NC(=O)C(C)(C)C1(O)CCC(F)(F)CC1)c1ncc(-c2ccc(C#Cc3ccc4nc([C@@H](NC(=O)C(C)(C)C5(O)CCC(F)(F)CC5)C(C)(C)C)[nH]c4c3)cc2)[nH]1` [Compound B48A], for which the “Fold-Synergistic 1a (Q30E)” value is reported as over 100 fold.

Consider `CC(C)(C)[C@H](NC(=O)C1(C2(O)CCC(F)(F)CC2)CC1)c1ncc(-c2ccc(-c3ccc4nc([C@@H](NC(=O)C5(C6(O)CCC(F)(F)CC6)CC5)C(C)(C)C)[nH]c4c3)cc2)[nH]1` [Compound B58B], for which the “Fold-Synergistic 1a (Q30E)” value is reported as over 100 fold.

Take `Cc1onc(-c2ccccc2)c1C(=O)N[C@H](c1ncc(-c2ccc(-c3ccc(-c4cnc([C@@H](NC(=O)c5c(-c6ccccc6)noc5C)C(C)C)[nH]4)cc3)cc2)[nH]1)C(C)C` [Compound S-85]: the “Fold-Synergistic 1a (Q30E)” value is given as over 100 fold.

Consider `COC(C)(CO)C(=O)N[C@H](c1nc(-c2ccc(-c3ccc(-c4c[nH]c([C@@H](NC(=O)C(C)(CO)OC)C(C)(C)C)n4)cc3)cc2)c[nH]1)C(C)(C)C` (single isomer, unassigned) [Compound W-234], for which the “Fold-Synergistic 1a (Q30E)” value was over 10 fold.

For the compound `CC(C)(C)[C@H](NC(=O)C(C)(C)C(F)(F)F)c1nc(-c2ccc(-c3ccc(-c4c[nH]c([C@@H](NC(=O)C(C)(C)C(F)(F)F)C(C)(C)C)n4)cc3)cc2)c[nH]1` [Compound P-31], the “Fold-Synergistic 1a (Q30E)” value was over 100 fold.

Take `COc1ccccc1C(=O)N[C@H](c1ncc(-c2ccc(-c3ccc(-c4cnc([C@@H](NC(=O)c5ccccc5OC)C(C)C)[nH]4)cc3)cc2)[nH]1)C(C)C` [Compound S-68]: the “Fold-Synergistic 1a (Q30E)” value is on record as over 100 fold.

On to `CC(C)C(NC(=O)C(=O)N1CCCCCC1)c1nc(-c2ccc(-c3ccc(-c4c[nH]c(C(NC(=O)C(=O)N5CCCCCC5)C(C)C)n4)cc3)cc2)c[nH]1` (stereo not drawn) [Compound W-52], for which the “Fold-Synergistic 1a (Q30E)” value is reported as over 100 fold.

On to `CC(C)[C@H](NC(=O)c1ccc(F)cc1Cl)c1ncc(-c2ccc(-c3ccc(-c4cnc([C@@H](NC(=O)c5ccc(F)cc5Cl)C(C)C)[nH]4)cc3)cc2)[nH]1` [Compound S-88], for which the “Fold-Synergistic 1a (Q30E)” value is given as over 100 fold.

`CC(C)[C@H](NC(=O)C(C)(C)n1cccn1)c1ncc(-c2ccc(-c3ccc(-c4cnc([C@@H](NC(=O)C(C)(C)n5cccn5)C(C)C)[nH]4)cc3)cc2)[nH]1` [Compound Y-25]: the “Fold-Synergistic 1a (Q30E)” value is listed as over 100 fold.

For `CC(C)(C)[C@H](Nc1ncc(Br)cn1)c1nc(-c2ccc(-c3ccc(-c4c[nH]c([C@@H](Nc5ncc(Br)cn5)C(C)(C)C)n4)cc3)cc2)c[nH]1` [Compound W-16A], the “Fold-Synergistic 1a (Q30E)” value is given as over 10 fold.

For `CC(C)C(NC(=O)C1CC(F)CN1C(=O)OC(C)(C)C)c1nc(-c2ccc(-c3ccc(-c4c[nH]c(C(NC(=O)C5CC(F)CN5C(=O)OC(C)(C)C)C(C)C)n4)cc3)cc2)c[nH]1` (stereo not drawn) [Compound W-181], the “Fold-Synergistic 1a (Q30E)” value is over 100 fold.

Consider `CC(C)(C)[C@H](NC(=O)C1CCC(F)(F)CC1)c1nc2c([nH]1)-c1ccc(-c3ccc4c(c3)CCc3nc([C@@H](NC(=O)C5CCC(F)(F)CC5)C(C)(C)C)[nH]c3-4)cc1CC2` [Compound B23], for which the “Fold-Synergistic 1a (Q30E)” value was over 100 fold.

On to `CC(C)[C@H](NC(=O)C(C)(C)C)c1nc(-c2ccc3c(c2)Cc2cc(-c4c[nH]c([C@@H](NC(=O)C(C)(C)C)C(C)C)n4)ccc2-3)c[nH]1` [Compound N-68], for which the “Fold-Synergistic 1a (Q30E)” value was over 100 fold.

In the case of `CC(C)(C)[C@H](NC(=O)C1(NC(=O)C2CC2)CCCCC1)c1nc(-c2ccc(-c3ccc(-c4c[nH]c([C@@H](NC(=O)C5(NC(=O)C6CC6)CCCCC5)C(C)(C)C)n4)cc3)cc2)c[nH]1` [Compound W-264], the “Fold-Synergistic 1a (Q30E)” value is over 100 fold.

Regarding `Cc1cc(-c2ccc(-c3c[nH]c([C@@H](NC(=O)C4(C)CCCCC4)C(C)C)n3)cc2)ccc1-c1c[nH]c([C@@H](NC(=O)C2(C)CCCCC2)C(C)C)n1.O=C(O)C(F)(F)F` [Compound N-79], the “Fold-Synergistic 1a (Q30E)” value is reported as over 100 fold.

`COC(c1ccccc1)C1(C(=O)N[C@H](c2nc(-c3ccc(-c4ccc(-c5c[nH]c([C@@H](NC(=O)C6(C(OC)c7ccccc7)CC6)C(C)(C)C)n5)cc4)cc3)c[nH]2)C(C)(C)C)CC1` (single isomer, unassigned) [Compound N-137A]: the “Fold-Synergistic 1a (Q30E)” value is given as over 100 fold.

As for `CC(C)(C)OC(=O)N1CC(F)(F)CC1(C)C(=O)N[C@H](c1nc(-c2ccc(-c3ccc(-c4c[nH]c([C@@H](NC(=O)C5(C)CC(F)(F)CN5C(=O)OC(C)(C)C)C(C)(C)C)n4)cc3)cc2)c[nH]1)C(C)(C)C` (single isomer, unassigned) [Compound W-78], the “Fold-Synergistic 1a (Q30E)” value was over 100 fold.

For the compound `CC(C)[C@H](NC(=O)OC1CCCC1)c1ncc(-c2ccc(-c3ccc(-c4cnc([C@@H](NC(=O)OC5CCCC5)C(C)C)[nH]4)cc3)cc2)[nH]1` [Compound S-213], the “Fold-Synergistic 1a (Q30E)” value is listed as over 100 fold.

In the case of `COC(=O)N[C@H](Cc1ccccc1)C(=O)N[C@H](c1ncc(-c2ccc(-c3ccc(-c4cnc([C@@H](NC(=O)[C@@H](Cc5ccccc5)NC(=O)OC)C(C)C)[nH]4)cc3)cc2)[nH]1)C(C)C` [Compound P-106], the “Fold-Synergistic 1a (Q30E)” value was over 100 fold.

For the compound `CC(C)(C)C(=O)NC(c1nc(-c2ccc(-c3ccc(-c4c[nH]c(C(NC(=O)C(C)(C)C)C5(C(F)(F)F)CC5)n4)cc3)cc2)c[nH]1)C1(C(F)(F)F)CC1` (single isomer, unassigned) [Compound N-107B], the “Fold-Synergistic 1a (Q30E)” value is recorded as over 10 fold.

On to `CC(C)(C)[C@H](NC(=O)C1CCC2(CC1)CC2)c1nc(-c2ccc(-c3ccc(-c4c[nH]c([C@@H](NC(=O)C5CCC6(CC5)CC6)C(C)(C)C)n4)cc3)cc2)c[nH]1` (stereo partly drawn) [Compound N-123], for which the “Fold-Synergistic 1a (Q30E)” value is reported as over 100 fold.

As for `Cc1cc(C(=O)N[C@H](c2ncc(-c3ccc(-c4ccc(-c5cnc([C@@H](NC(=O)c6cc(C)oc6C(F)(F)F)C(C)C)[nH]5)cc4)cc3)[nH]2)C(C)C)c(C(F)(F)F)o1` [Compound S-102], the “Fold-Synergistic 1a (Q30E)” value is reported as over 100 fold.

With `CC(C)(C)[C@H](NC(=O)C1(C(O)c2ccccc2)CC1)c1nc(-c2ccc(-c3ccc(-c4c[nH]c([C@@H](NC(=O)C5(C(O)c6ccccc6)CC5)C(C)(C)C)n4)cc3)cc2)c[nH]1` (single isomer, unassigned) [Compound N-126B], the “Fold-Synergistic 1a (Q30E)” value was over 100 fold.

Consider `CC(C)(C)[C@H](NC(=O)[C@H]1C[C@@H]2[C@H](C1)C2(F)F)c1nc(-c2ccc(-c3ccc(-c4c[nH]c([C@@H](NC(=O)[C@H]5C[C@@H]6[C@H](C5)C6(F)F)C(C)(C)C)n4)cc3)cc2)c[nH]1` [Compound Y-10], for which the “Fold-Synergistic 1a (Q30E)” value is over 100 fold.

On to `CC(C)[C@H](NC(=O)c1cccc(Cl)c1)c1ncc(-c2ccc(-c3ccc(-c4cnc([C@@H](NC(=O)C(C)(C)C)C(C)C)[nH]4)cc3)cc2)[nH]1` [Compound Y-54], for which the “Fold-Synergistic 1a (Q30E)” value is given as over 100 fold.

Take `Cc1ccoc1C(=O)N[C@H](c1ncc(-c2ccc(-c3ccc(-c4cnc([C@@H](NC(=O)c5occc5C)C(C)C)[nH]4)cc3)cc2)[nH]1)C(C)C` [Compound S-90]: the “Fold-Synergistic 1a (Q30E)” value is recorded as over 100 fold.

As to `CC1(O)CC(C(=O)N[C@H](c2nc(-c3ccc(-c4ccc(-c5c[nH]c([C@@H](NC(=O)C6CC(C)(O)C6)C(C)(C)C)n5)cc4)cc3)c[nH]2)C(C)(C)C)C1` (single isomer, unassigned) [Compound W-170], the “Fold-Synergistic 1a (Q30E)” value was over 100 fold.
